Data taken from publication PMC5193077, “An Allosteric Potentiator of the Dopamine D1 Receptor Increases Locomotor Activity in Human D1 Knock-In Mice without Causing Stereotypy or Tachyphylaxis” (The Journal of Pharmacology and Experimental Therapeutics, 2017).
Where “and” joins values, the source holds several entries; their conditions need not be identical. Identical values can stand only once. Like-named read-outs stand apart in the source and are kept apart here.

Key:
human D1 receptor [1] = molecular target: T1, human D1 receptor (Homo sapiens, UniProt P21728); test: cAMP response in HEK293 cells stably expressing the human D1 receptor; assay type: cell-based; conditions: for EC50: hD1 HEK293
mouse D1 receptor = molecular target: T2, mouse D1 receptor (Mus musculus, UniProt Q61616); test: cAMP potentiation, transiently expressed mouse D1 receptor in HEK293 cells; assay type: cell-based
T2 construct: expressed in transfected cells; host or cells: HEK293, transient (Fugene HD)

β3 receptor = β3 receptor (Homo sapiens, UniProt P13945); test: β3 cAMP assay (DiscoveRx); assay type: cell-based; conditions: potentiator, agonist and antagonist mode, up to 10 µM
Method: The D2, β1, β2, β3, and 5HT6 cAMP assays were performed at DiscoveRx using the protocols described on their website (www.discoverx.com).

5HT2B receptor = 5HT2B receptor (Homo sapiens, UniProt P41595); test: Standard Lilly selectivity panel, 5HT2B receptor
hD1 mice = test: Video-tracking of horizontal motion, rearing and grooming in hD1 mice; assay type: in vivo, mouse
Excerpt: The apparatus for the video-tracking assessment experiment included 12 custom-built video-tracking observation chambers and the HomeCageScan (CleverSys, Reston, VA) software system. The chambers, measuring (in inches) 8 width × 10 length × 8 height, consisted of two end walls, a back wall, a top, and a floor constructed of ¼-in. translucent white acrylic, and one side (front) constructed of clear acrylic. LED strip lighting was placed below the chamber for illumination. A color video camera (640 × 480, 30 frames per second) was placed in front of each chamber to record behavior from a side view. The chambers were located in large sound-attenuating chambers to reduce ambient room noise and isolate lighting. The cameras were connected in groups of four to a quad multiplexer (model NVQC-42N; Nuvico, Englewood, NJ), with each multiplexer connected to its own computer, which then recorded each session to an MPEG file.
At the end of the experiment the files were batch-analyzed by a computer running the CleverSys CageScan video-tracking software. This software can recognize and quantify several different behaviors, including LMA, grooming, rearing, immobility, and feeding behaviors. The current experiment examined behavior in a novel open-field environment rather than home-cage activity, which limited behaviors of interest to LMA, grooming, and rearing.
For HomeCageScan behavioral phenotyping, male D1 knock-in mice (8–12 weeks, 20–25 g body weight) were placed into the observation chambers for a 60-minute habituation session. […] All behavioral activity was monitored and scored by the HomeCageScan system.

human D1 receptor [2] = molecular target: T1, human D1 receptor; test: D1 receptor internalization (PathHunter, DiscoveRx)
[3] = with EC20 dopamine, 0% = EC20 dopamine response, 100% = maximum dopamine response

T2 sequence (Q61616 whole entry): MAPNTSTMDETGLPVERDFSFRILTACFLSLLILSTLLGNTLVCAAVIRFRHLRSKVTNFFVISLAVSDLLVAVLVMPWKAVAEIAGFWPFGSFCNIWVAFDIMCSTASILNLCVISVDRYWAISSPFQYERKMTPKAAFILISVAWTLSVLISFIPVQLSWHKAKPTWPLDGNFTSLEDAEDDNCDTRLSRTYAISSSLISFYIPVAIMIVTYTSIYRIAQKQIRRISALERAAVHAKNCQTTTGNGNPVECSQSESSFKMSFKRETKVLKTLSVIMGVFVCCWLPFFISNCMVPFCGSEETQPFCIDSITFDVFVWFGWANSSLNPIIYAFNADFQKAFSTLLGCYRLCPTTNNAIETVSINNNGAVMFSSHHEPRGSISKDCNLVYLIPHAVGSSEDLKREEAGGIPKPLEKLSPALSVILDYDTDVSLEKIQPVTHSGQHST
T1 sequence (P21728 whole entry): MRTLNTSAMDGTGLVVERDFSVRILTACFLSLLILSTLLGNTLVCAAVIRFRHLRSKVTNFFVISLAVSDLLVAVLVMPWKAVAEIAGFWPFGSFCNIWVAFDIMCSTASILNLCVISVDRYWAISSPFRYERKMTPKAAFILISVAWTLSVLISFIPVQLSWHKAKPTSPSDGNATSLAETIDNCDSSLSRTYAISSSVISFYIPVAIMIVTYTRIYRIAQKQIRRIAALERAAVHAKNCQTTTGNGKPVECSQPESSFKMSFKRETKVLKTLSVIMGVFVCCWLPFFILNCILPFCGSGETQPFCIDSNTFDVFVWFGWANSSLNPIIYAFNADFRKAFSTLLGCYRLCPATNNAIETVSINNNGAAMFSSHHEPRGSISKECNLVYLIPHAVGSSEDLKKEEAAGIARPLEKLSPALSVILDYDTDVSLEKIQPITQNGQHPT
5HT2B receptor, sequence (P41595 whole entry): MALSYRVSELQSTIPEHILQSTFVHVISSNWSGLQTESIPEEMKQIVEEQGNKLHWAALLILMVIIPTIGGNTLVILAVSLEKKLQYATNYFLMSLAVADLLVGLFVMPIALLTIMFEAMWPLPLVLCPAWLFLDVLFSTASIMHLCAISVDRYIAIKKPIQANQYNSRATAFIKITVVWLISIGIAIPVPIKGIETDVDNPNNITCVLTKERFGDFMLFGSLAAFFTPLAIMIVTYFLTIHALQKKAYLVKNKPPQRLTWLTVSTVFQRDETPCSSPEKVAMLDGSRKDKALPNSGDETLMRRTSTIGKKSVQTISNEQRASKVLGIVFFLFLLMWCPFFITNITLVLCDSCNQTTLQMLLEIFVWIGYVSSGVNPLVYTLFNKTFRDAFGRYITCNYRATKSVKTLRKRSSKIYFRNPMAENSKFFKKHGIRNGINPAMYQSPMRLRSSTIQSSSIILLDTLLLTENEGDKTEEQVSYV
β3 receptor, sequence (P13945 whole entry): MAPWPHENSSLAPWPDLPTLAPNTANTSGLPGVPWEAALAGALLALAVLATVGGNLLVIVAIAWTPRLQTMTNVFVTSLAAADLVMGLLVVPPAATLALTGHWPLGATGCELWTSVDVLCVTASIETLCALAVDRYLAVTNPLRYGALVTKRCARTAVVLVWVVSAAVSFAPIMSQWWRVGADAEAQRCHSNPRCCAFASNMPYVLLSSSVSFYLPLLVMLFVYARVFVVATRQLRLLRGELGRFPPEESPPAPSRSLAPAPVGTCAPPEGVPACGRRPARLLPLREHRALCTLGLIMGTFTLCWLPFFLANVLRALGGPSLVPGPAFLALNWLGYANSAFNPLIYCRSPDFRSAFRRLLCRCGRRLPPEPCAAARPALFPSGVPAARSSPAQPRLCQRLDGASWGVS

With `C[C@H]1c2cccc(C(C)(C)O)c2C[C@H](CO)N1C(=O)Cc1c(Cl)cccc1Cl` [DETQ, 2-(2,6-dichlorophenyl)-1-((1S,3R)-3-(hydroxymethyl)-5-(2-hydroxypropan-2-yl)-1-methyl-3,4-dihydroisoquinolin-2(1H)-yl)ethan-1-one] the “Relative potency (potentiator mode RA divided by agonist mode RA)” value (human D1 receptor [1]) was 43 fold and 42.8 fold, the “Maximum overall sensitization to dopamine (α times β)” value (human D1 receptor [1]; 20.8 × 1.22) was 25.4 fold and the Emax (human D1 receptor [1]; HEK293, human D1, comparison with rat D1, read-out: Maximum response relative to that of dopamine) was 98.6%. The “Rightward shift of EC50 in the absence of dopamine” value (human D1 receptor [1]; agonist vs potentiator mode) was 6 fold, the “α-factor (maximum leftward shift of the cAMP response to dopamine)” value (human D1 receptor [1]; allosteric Schild plot) was 21 fold and 20.8 fold and 20.8 ± 1.9 fold and the Kb (human D1 receptor [1]; dopamine curve-shift, cAMP, read-out: KB (allosteric Schild plot)) was 26 nM. The EC50 (human D1 receptor [1]; in the presence of an EC20 concentration of dopamine (12 nM), read-out: EC50, cAMP, potentiator mode) was 5.8 nM and 5.83 nM, the “Top, cAMP, potentiator mode” value (human D1 receptor [1]; with 12 nM dopamine, % of window between EC20 dopamine and maximum dopamine response) was 95.2% and the “RA, cAMP agonist mode” value (human D1 receptor [1]; without dopamine) was 0.38. The “Top, cAMP, agonist mode” value (human D1 receptor [1]; without dopamine, % of maximum response to dopamine) was 11.6%, the EC50 (human D1 receptor [1]; without dopamine, read-out: EC50, cAMP, agonist mode) was 30.4 nM and the “Loss of potency/affinity at mouse D1 versus human D1” value (mouse D1 receptor) was about 30 fold. For the same molecule, the “Top (%)” value (mouse D1 receptor; Mouse D1, transient) was 50.0%, the EC50 (mouse D1 receptor; Mouse D1, transient, 0.7 nM dopamine) was 312 nM and the “Activity at β3 receptor” value (β3 receptor) was “inactive”. The “Stimulation at 5HT2B receptor, potentiator mode” value (5HT2B receptor; 1 µM) was 5%, the inhibition at 1 µM (5HT2B receptor; 1 µM, read-out: Inhibition at 5HT2B receptor, antagonist mode) was 13% and the “Stimulation at 5HT2B receptor, potentiator mode” value (5HT2B receptor; 10 µM) was 48%. For the same molecule, the inhibition at 10 µM (5HT2B receptor; 10 µM, read-out: Inhibition at 5HT2B receptor, antagonist mode) was 56%, the “Grooming (index of stereotyped behavior)” value (hD1 mice) was “only modest changes that did not reach statistical significance” and the “Horizontal locomotion and rearing” value (hD1 mice) was “this increase was maintained up to the highest dose tested”. For the same molecule, the “Pathway Preference cAMP/Internalization” value (human D1 receptor [2]; RA for cAMP divided by RA for internalization) was 13.1, the “Relative Preference DETQ/A-77636” value (human D1 receptor [2]; pathway preference of DETQ divided by that of A-77636) was 2.0 ± 1.4 and 1.97 and the “RA, Internalization” value (human D1 receptor [2]; top divided by EC50, with 407 nM dopamine) was 1.25. For the same molecule, the “Bottom, D1 receptor internalization” value (human D1 receptor [2]; [3]) was 5.0% and the “Top, D1 receptor internalization” value (human D1 receptor [2]; [3]) was 55.8%.
